One test concerns the target human factor XIa (Homo sapiens (Human), UniProt P03951). Description: Measurement of FXIa inhibition (fluorogenic peptide substrate Boc-Glu(OBzl)-Ala-Arg-AMC). As to conditions: factor XIa from Kordia 0.45 nM, 15 min preincubation, 30 min at 22° C., fluorescence. It is filed as biochemical. Here is the method:
a.1) Measurement of FXIa Inhibition
The factor XIa inhibition of the substances according to the invention is determined using a biochemical test system which utilizes the reaction of a peptidic factor XIa substrate to determine the enzymatic activity of human factor XIa. Here, factor XIa cleaves from the peptic factor XIa substrate the C-terminal aminomethylcoumarin (AMC), the fluorescence of which is measured. The determinations are carried out in microtitre plates.
In each case 1 μl of the diluted substance solutions is placed into the wells of white microtitre plates from Greiner (384 wells). 20 μl of assay buffer (50 mM of Tris/HCl pH 7.4; 100 mM of sodium chloride; 5 mM of calcium chloride; 0.1% of bovine serum albumin) and 20 μl of factor XIa from Kordia (0.45 nM in assay buffer) are then added successively. After 15 min of incubation, the enzyme reaction is started by addition of 20 μl of the factor XIa substrate Boc-Glu(OBzl)-Ala-Arg-AMC dissolved in assay buffer (10 μM in assay buffer) from Bachem, the mixture is incubated at room temperature (22° C.) for 30 min and fluorescence is then measured (excitation: 360 nm, emission: 460 nm). The measured emissions of the test batches with test substance are compared to those of control batches without test substance (only dimethyl sulphoxide instead of test substance in dimethyl sulphoxide), and IC50 values are calculated from the concentration/activity relationships.

In a further test the target is human plasma kallikrein (Homo sapiens (Human), UniProt P03952). Description: Determination of the plasma kallikrein activity (fluorogenic substrate H-Pro-Phe-Arg-AMC). As to conditions: plasma kallikrein from Kordia 0.6 nM, 15 min preincubation, 30 min at 22° C., fluorescence. It is filed as biochemical. Here is the method:
a.5) Determination of the Plasma Kallikrein Activity
To determine the plasma kallikrein inhibition of the substances according to the invention, a biochemical test system is used which utilizes the reaction of a peptidic plasma kallikrein substrate to determine the enzymatic activity of human plasma kallikrein. Here, plasma kallikrein cleaves from the peptic plasma kallikrein substrate the C-terminal aminomethylcoumarin (AMC), the fluorescence of which is measured. The determinations are carried out in microtitre plates.
In each case 1 μl of the diluted substance solutions is placed into the wells of white microtitre plates from Greiner (384 wells). 20 μl of assay buffer (50 mM Tris/HCl pH 7.4; 100 mM sodium chloride solution; 5 mM of calcium chloride solution; 0.1% of bovine serum albumin) and 20 μl of plasma kallikrein from Kordia (0.6 nM in assay buffer) are then added successively. After 15 min of incubation, the enzyme reaction is started by addition of 20 μl of the substrate H-Pro-Phe-Arg-AMC dissolved in assay buffer (10 μM in assay buffer) from Bachem, the mixture is incubated at room temperature (22° C.) for 30 min and fluorescence is then measured (excitation: 360 nm, emission: 460 nm). The measured emissions of the test batches with test substance are compared to those of control batches without test substance (only dimethyl sulphoxide instead of test substance in dimethyl sulphoxide), and IC50 values are calculated from the concentration/activity relationships.

The IC50 is the midpoint of a concentration-inhibition curve. A higher IC50 goes with lower potency.

Sequence of human plasma kallikrein (P03952 391-638): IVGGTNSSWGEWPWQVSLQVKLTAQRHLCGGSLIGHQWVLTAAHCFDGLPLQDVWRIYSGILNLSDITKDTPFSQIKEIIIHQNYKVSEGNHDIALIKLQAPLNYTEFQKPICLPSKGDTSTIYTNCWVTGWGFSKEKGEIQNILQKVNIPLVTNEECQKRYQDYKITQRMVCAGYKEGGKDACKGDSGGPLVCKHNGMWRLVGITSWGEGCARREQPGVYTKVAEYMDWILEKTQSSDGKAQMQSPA
Sequence of human plasma kallikrein (P03952 20-390 partner): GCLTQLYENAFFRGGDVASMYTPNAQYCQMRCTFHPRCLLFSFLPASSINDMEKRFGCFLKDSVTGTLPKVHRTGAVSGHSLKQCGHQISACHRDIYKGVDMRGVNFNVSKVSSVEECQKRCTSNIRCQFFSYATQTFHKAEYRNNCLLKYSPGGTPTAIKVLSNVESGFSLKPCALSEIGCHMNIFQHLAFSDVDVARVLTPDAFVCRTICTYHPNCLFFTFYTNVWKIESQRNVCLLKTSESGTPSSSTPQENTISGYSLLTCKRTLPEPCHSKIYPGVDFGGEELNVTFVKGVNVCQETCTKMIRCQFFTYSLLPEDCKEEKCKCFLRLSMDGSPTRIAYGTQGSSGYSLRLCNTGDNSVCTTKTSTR
Sequence of human factor XIa (P03951 388-625): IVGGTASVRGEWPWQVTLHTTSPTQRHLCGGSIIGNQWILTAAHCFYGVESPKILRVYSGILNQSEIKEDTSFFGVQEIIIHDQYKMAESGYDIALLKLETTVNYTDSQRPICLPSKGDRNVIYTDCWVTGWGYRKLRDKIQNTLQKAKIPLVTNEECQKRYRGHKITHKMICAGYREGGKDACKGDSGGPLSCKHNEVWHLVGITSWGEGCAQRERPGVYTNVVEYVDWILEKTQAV
Sequence of human factor XIa (P03951 19-387 partner): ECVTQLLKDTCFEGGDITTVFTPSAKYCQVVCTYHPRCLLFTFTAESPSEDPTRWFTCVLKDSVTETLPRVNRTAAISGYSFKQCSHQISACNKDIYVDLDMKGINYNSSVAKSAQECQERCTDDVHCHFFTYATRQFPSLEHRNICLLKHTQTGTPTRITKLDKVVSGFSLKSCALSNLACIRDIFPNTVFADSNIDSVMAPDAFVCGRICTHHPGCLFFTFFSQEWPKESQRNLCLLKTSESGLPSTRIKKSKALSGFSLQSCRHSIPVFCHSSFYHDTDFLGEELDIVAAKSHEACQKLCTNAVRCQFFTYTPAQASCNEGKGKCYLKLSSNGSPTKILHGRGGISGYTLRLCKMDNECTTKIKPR

With `N#Cc1ccc(Cl)cc1-c1cc(=O)n(C(Cc2cnco2)C(=O)Nc2ccc3nccn3c2)cc1Cl` (racemic) [Example 30, 2-[5-Chloro-4-(5-chloro-2-cyanophenyl)-2-oxopyridin-1(2H)-yl]-N-(imidazo[1,2-a]pyridin-6-yl)-3-(1,3-oxazol-5-yl)propanamide (racemate)], the IC50 at human factor XIa is 96 nM; against human plasma kallikrein, 120 nM.

Turning to `N#Cc1ccc(Cl)cc1-c1cc(=O)n(C(Cc2cnco2)C(=O)Nc2ccc3nccn3c2)cc1OC(F)F` (racemic) [Example 31, 2-[4-(5-Chloro-2-cyanophenyl)-5-(difluoromethoxy)-2-oxopyridin-1(2H)-yl]-N-(imidazo[1,2-a]pyridin-6-yl)-3-(1,3-oxazol-5-yl)propanamide (racemate)], the IC50 against human factor XIa was found to be 500 nM; at human plasma kallikrein, 970 nM.

`COc1cn(C(Cc2cocn2)C(=O)Nc2ccc3nccn3c2)c(=O)cc1-c1cc(Cl)ccc1C#N` (racemic) [Example 32, 2-[4-(5-Chloro-2-cyanophenyl)-5-methoxy-2-oxopyridin-1(2H)-yl]-N-(imidazo[1,2-a]pyridin-6-yl)-3-(1,3-oxazol-4-yl)propanamide (racemate)] had a half-maximal inhibitory concentration (IC50) against human factor XIa of 92 nM.

As for `N#Cc1ccc(Cl)cc1-c1cc(=O)n(C(Cc2cocn2)C(=O)Nc2ccc3nccn3c2)cc1Cl` (racemic) [Example 33, 2-[5-Chloro-4-(5-chloro-2-cyanophenyl)-2-oxopyridin-1(2H)-yl]-N-(imidazo[1,2-a]pyridin-6-yl)-3-(1,3-oxazol-4-yl)propanamide (racemate)], the figures for the IC50 on human factor XIa and on human plasma kallikrein were 310 nM and 250 nM, respectively.

For the molecule `COCCC(C(=O)Nc1ccn2nccc2c1)n1cc(OC)c(-c2cc(Cl)ccc2C#N)cc1=O` (single isomer, unassigned; enantiomer 1) [Example 36, 2-[4-(5-Chloro-2-cyanophenyl)-5-methoxy-2-oxopyridin-1(2H)-yl]-4-methoxy-N-(pyrazolo[1,5-a]pyridin-5-yl)butanamide (enantiomer 1)], the half-inhibitory concentration (IC50) against human plasma kallikrein stood at 3.2 nM.

Turning to `COc1cn(CC(=O)Nc2ccc3nc(C(=O)O)cn3c2)c(=O)cc1-c1cc(Cl)ccc1C#N` [Example 6, 6-({[4-(5-Chloro-2-cyanophenyl)-5-methoxy-2-oxopyridin-1(2H)-yl]acetyl}amino)imidazo[1,2-a]pyridine-2-carboxylic acid], at human plasma kallikrein, the concentration for half-maximal inhibition (IC50) stood at 61 nM.

With `O=C(Cn1cc(Cl)c(-c2cc(Cl)ccc2OC(F)F)cc1=O)Nc1ccc2nc(C(=O)O)cn2c1` [Example 8, 6-[({5-Chloro-4-[5-chloro-2-(difluoromethoxy)phenyl]-2-oxopyridin-1(2H)-yl}acetyl)amino]imidazo[1,2-a]pyridine-2-carboxylic acid], 380 nM corresponded to half-maximal inhibition against human factor XIa (IC50).
